Each structure is given as a SMILES string.

The term LC50 denotes the concentration that kills 50% of the test population. Higher therefore signals a less lethal substance.

The data set has as its system Artemia. The data set can be described thus: Toxicity against brine shrimp. As to conditions: in vivo. Format: organism-based.
`CC1(C)CC[C@@]23CC[C@]4(C)[C@@](CC[C@@H]5[C@@]6(C)CC[C@H](O)C(C)(C)[C@@H]6CC[C@]54C)(OC2=O)[C@@H]3C1` displayed an LC50 greater than 700 ppm.

The compound `CC1(C)CC[C@@]23CC[C@]4(C)[C@@](OC2=O)([C@@H]3C1)[C@H]1O[C@H]1[C@@H]1[C@@]2(C)CC[C@H](O)C(C)(C)[C@@H]2CC[C@]14C` showed an LC50 greater than 700 ppm. The compound `CC1(C)CC[C@@]23CC[C@]4(C)[C@@](C=C[C@@H]5[C@@]6(C)CC[C@H](O)C(C)(C)[C@@H]6CC[C@]54C)(OC2=O)[C@@H]3C1` returned a 50% lethal concentration (LC50) greater than 700 ppm.

`COc1ccc(-c2oc3cc(OC)cc(O)c3c(=O)c2OC)cc1`: the LC50 was greater than 700 ppm. For the compound `CC(=O)O[C@H]1CC[C@]2(C)[C@H]3CC=C4[C@@H]5CC(C)(C)CC[C@]5(C(=O)O)CC[C@@]4(C)[C@]3(C)CC[C@H]2C1(C)C` [ACETYL OLEANOLIC ACID], the 50% lethal concentration (LC50) was greater than 700 ppm. `COc1ccc(-c2cc(=O)c3c(O)cc(OC)cc3o2)cc1` [APIGENIN DIMETHYLETHER] came in with a 50% lethal concentration (LC50) greater than 700 ppm. `C=C(C)[C@@H]1CC[C@]2(C(=O)O)CC[C@]3(C)[C@H](CC[C@@H]4[C@@]5(C)CC[C@H](O)C(C)(C)[C@@H]5CC[C@]43C)[C@@H]12` [BETULINIC ACID] had an LC50 greater than 700 ppm.

Compound `COc1ccc(-c2oc3cc(O)cc(O)c3c(=O)c2OC)cc1` [ERMANIN] showed an LC50 greater than 700 ppm. The same measure for `COc1ccc(-c2cc(=O)c3c(O)c(OC)c(OC)c(OC)c3o2)cc1` [GARDENIN B]: greater than 700 ppm; for `COc1ccc(-c2cc(=O)c3c(O)c(OC)c(O)c(OC)c3o2)cc1` [NEVADENSIN]: greater than 700 ppm; for `CC1(C)CC[C@]2(C(=O)O)CC[C@]3(C)C(=CC[C@@H]4[C@@]5(C)CC[C@H](O)C(C)(C)[C@@H]5CC[C@]43C)[C@@H]2C1` [OLEANOLIC_ACID]: greater than 700 ppm. Compound `C[C@H]1[C@H](C)CC[C@]2(C(=O)O)CC[C@]3(C)C(=CC[C@@H]4[C@@]5(C)CC[C@H](O)C(C)(C)[C@@H]5CC[C@]43C)[C@H]12` [URSOLIC ACID] displayed a median lethal concentration (LC50) greater than 700 ppm.
